Data published in patent publication US20110207801A1, “Novel Genes, Compositions, and Methods for Modulating the Unfolded Protein Response” (University of Michigan, priority 2002, published 2011).

Experiments:
hsp-4 = hsp-4 expression upon ER stress (quantitative Taqman RT-PCR); type: in vivo, C. elegans; settings: wild-type 1.5 day-old L2 larvae, 4 hours
Method: (§1) For Northern analysis, mixed-stage nematodes grown in liquid culture were treated with 3 mM of DTT (Calbiochem) for up to 8 hours. Heat-shock treatment was performed at 30° C. for 1 hour. For single worm analysis, individual L2 larvae grown on plates were treated with 2.5 mM of DTT or 28 μg/ml of tunicamycin (Calbiochem) for 4 hours. To study survival to tunicamycin, gravid adults were allowed to lay eggs on plates containing tunicamycin (0 to 7.5 μg/ml) for 4 hours and then removed from the plates. Eggs were counted and studied 3 days later.
(§2) Taqman RT-PCR was performed as described by Heid et al. (1996). The lack of DNA contamination in RNA preparations was confirmed by a 1000-fold decrease in quantitative PCR yield when reverse transcriptase was omitted. A unique sequence in the 3′UTR of act-1 and act-3 was amplified using Taqman PCR (primers act-F/act-R and act-probe). The primers (hsp-3-F/hsp-3-R) and the hsp-3-probe probe were used for detecting hsp-3 transcripts. The primers (hsp-4-F and hsp-4-R) and the hsp-4-probe probe were used for detecting hsp-4 transcripts. The relative expression of hsp-3 and hsp-4 was normalized to the average signals of act-1/act-3.

hsp-3 = hsp-3 expression upon ER stress (Northern blot, quantitative Taqman RT-PCR); type: in vivo, C. elegans; settings: wild-type 1.5 day-old L2 larvae, 4 hours
Method: as §1
Total RNA preparation and Northern blot analysis was performed as described (Chen et al., 2000). The blot was hybridized sequentially with digoxigenin (DIG)-labeled DNA probes for hsp-3 and for 26S rRNA prepared with DIG-high prime labeling Kit (Roche).
as §2, with “The relative expression of hsp-3 and hsp-4 was normalized to the average signals of act-1/act-3.” left out

BiP mRNA [1] = assay: Northern blot analysis of BiP mRNA in MEFs; type: cell-based, mouse; settings: tunicamycin for 6 hr
Method: (§3) FIGS. 12E and 12F depict a Northern blot analysis of wild-type and IRE1α-null MEFs. One blot was probed with [α-^32P]-labeled hamster BiP cDNA and β-actin cDNA (E) and another blot was probed with [α-^32P]-labeled mouse GRP94 DNA and β-actin cDNA (F).
(§4) Southern and Northern blot analysis followed standard procedures (Sambrook et al., 1989). [^32P]-labeled probes were prepared using a random prime labeling system (Amersham Pharmacia, Piscataway, N.J.). A 0.5-kb BamHI-XhoI fragment from the BS-mIRE1α targeting vector or a 3.6-kb EcoRI-XbaI fragment from pED-hIRE1α cDNA (Tirasophon et al., 2000) were used for Southern and Northern analysis, respectively. The probes for Northern analysis of mXbp1, BiP and GRP94 were a 0.94-kb XhoI fragment of pcDNA-mXbp1-u, the EcoRI-PstI fragment of hamster BiP (Ting et al., 1987), and a 146-bp PCR fragment of mouse GRP94 (from 142 to 287 of the coding region), respectively.

Xbp1 mRNA [2] = assay: Northern blot analysis of Xbp1 mRNA in CHO cells; type: cell-based, Chinese hamster; settings: 2 μg/ml, 16 hours
Method: (§5) FIG. 17E depicts a Northern blot analysis of BiP and Xbp1 mRNA in S2P-deficient cells. Wild-type and S2P-deficient CHO cells were treated with or without 2 μg/ml tunicamycin for 16 hours prior to harvesting total RNA for Northern blot analysis using hamster BiP, XBP1-u and β-actin cDNA as probes.
as §4

IRE1 [3] = assay: XBP1-EGFP reporter of IRE1 activation in murine embryonic fibroblast cells; type: cell-based
Text: (§6) COS-1 monkey cells were transfected by either diethylaminoethyl (DEAE)-dextran (Kaufman, 1997) or Calcium Phosphate-BES methods (Ausubel et al, 1999). Chinese hamster ovary (CHO) cells were transfected by either lipofectAMINE PLUS (Life Technology) or FuGENE6 (Roche). Murine embryonic fibroblasts (MEFs) were transfected by either FuGENE6 (Roche) or Effectine (QIAGEN). IRE1 activation was monitored by immunoprecipitation and western analysis.
(§7) XBP1 splicing was also monitored by RT-PCR analysis of RNAs using primers designed to amplify the region encompassing the overlap between open reading frame 1 (ORF1) and ORF2 within XBP1 mRNA (see Lee et al., Genes and Dev. 2002). XBP1 splicing may also be monitored by assessing the expression of a reporter gene that is regulated by splicing of the XBP1 intron. The coding region of EGFP, Luciferase or β-galactosidase was fused to the mouse XBP1 ORF1 downstream of the XBP1 intron. Transcription of the construct is under control of the constitutively expressed CMV promoter. Therefore, expression of the XBP1-EGFP, XBP1-Luciferase or XBP1-β-galactosidase fusion protein is regulated by splicing of the XBP1 intron.
(§8) At 48 hours after transfection, cells were treated with 10 ug/ml tunicamycin to inhibit N-linked glycosylation. […] Therefore, this construct is instrumental in monitoring IRE1 activation.

IRE1 [4] = assay: XBP1-EGFP reporter of IRE1 activation in COS-1 cells; type: cell-based, monkey; settings: 10 ug/ml, after 8 and 16 hours
Text: as §6, §7, §8

Xbp1 mRNA [5] = assay: Northern blot analysis of Xbp1 mRNA in MEFs; type: cell-based, mouse; settings: 10 μg/ml, 6 hr
Method: FIG. 15F depicts a Northern blot analysis of Xbp1 mRNA in IRE1α-null MEFs. Wild-type and IRE1α-null MEFs were treated with or without 10 μg/ml tunicamycin for 6 hr prior to harvesting total RNA for Northern blot analysis. The blots were probed with [α-^32P]-labeled 0.94-kb XhoI fragment of XBP1-u and [β-actin cDNA.
as §4

BiP mRNA [6] = assay: Northern blot analysis of BiP mRNA in CHO cells; type: cell-based, Chinese hamster; settings: 2 μg/ml, 16 hours
Method: as §5, §4

C. elegans = assay: survival to tunicamycin (eggs laid on plates, studied after 3 days); type: in vivo; settings: for animals arrested at or prior to the L3 stage / animals matured to the L4 stage or older / dead animals: after 3 days
Text: Eggs from each strain were laid on plates containing different concentrations of tunicamycin, counted, and studied after 3 days. The number of eggs studied is listed above each column. The X-axis represents tunicamycin concentration. The total worm population was grouped into three fractions: animals that matured to L4 or older, animals that arrested at or prior to the L3 stage, and dead animals. Each fraction was plotted as the percentage of total eggs laid (Y-axis).
as §1

GRP94 mRNA = assay: Northern blot analysis of GRP94 mRNA in MEFs; type: cell-based, mouse; settings: 10 μg/ml, 6 hr
Method: as §3, §4

O[C@H](CS)[C@H](O)CS (racemic) [DTT, dithiothreitol]
hsp-4 induction (hsp-4; DTT 2.5 mM): 61 fold
hsp-3 induction (hsp-3; DTT 2.5 mM): ~9.3 fold

tunicamycin
reduction of BiP mRNA induction in IRE1α-null MEFs compared with wild-type (BiP mRNA [1]): 10%
hsp-4 induction (hsp-4; tunicamycin 28 μg/ml): 29 fold
Xbp1 mRNA induction (Xbp1 mRNA [2]; S2P-deficient CHO cells): 2.9 fold
Xbp1 mRNA induction (Xbp1 mRNA [2]; wild-type CHO cells): 3.1 fold
fluorescence of cells expressing the XBP1-EGFP construct (IRE1 [3]; control murine embryonic fibroblast cells): intense fluorescsence
fluorescence of cells expressing the XBP1-EGFP construct (IRE1 [3]; murine embryonic fibroblast cells deleted in both IRE1α alleles): no fluorescence was detected
fluorescence of cells transfected with the XBP1-EGFP construct (IRE1 [4]): bright fluoresence
Xbp1 mRNA induction (Xbp1 mRNA [5]; IRE1α-null MEFs): 4.0 fold
Xbp1 mRNA induction (Xbp1 mRNA [5]; wild-type MEFs): 3.1 fold
hsp-3 induction (hsp-3; tunicamycin 28 μg/ml): ~3.9 fold
BiP mRNA induction (BiP mRNA [6]; S2P-deficient CHO cells): 2.6 fold
BiP mRNA induction (BiP mRNA [6]; wild-type CHO cells): 34 fold
animals arrested at or prior to the L3 stage (C. elegans; IRE1(v33) mutants, 2 μg/ml): 60%
animals matured to the L4 stage or older (C. elegans; IRE1(v33) mutants, 2 μg/ml): 9%
dead animals (C. elegans; IRE1(v33) mutants, 2 μg/ml): 31%
animals arrested at or prior to the L3 stage (C. elegans; N2, 5 μg/ml): 29%
animals matured to the L4 stage or older (C. elegans; N2, 5 μg/ml): 8%
dead animals (C. elegans; N2, 5 μg/ml): 63%
concentration at which growth of N2 animals was affected (C. elegans; N2, plates with 0 to 7.5 μg/ml): ≥ 5 µg/mL
animals arrested at or prior to the L3 stage (C. elegans; PEK1(ok275) mutants, 2 μg/ml): 31%
animals matured to the L4 stage or older (C. elegans; PEK1(ok275) mutants, 2 μg/ml): 35%
dead animals (C. elegans; PEK1(ok275) mutants, 2 μg/ml): 34%
GRP94 mRNA induction (GRP94 mRNA; IRE1α-null MEFs): 5.4 fold
GRP94 mRNA induction (GRP94 mRNA; wild-type MEFs): 6.7 fold
